In US9795570B2, “Modulation of macrophage phenotype by emodin” (University of South Carolina, priority 2016, dated 2017):

What was measured:
[1] = test system: NFκB p65, STAT1, IRF5, STAT6, IRF4; assay: Nuclear translocation of transcription factors (western blotting of nuclear fractions); format: cell-based, mouse; conditions: emodin 50 μM 24 h
Experimental: Following stimulation with IL4 or LPS+IFNγ with or without emodin for varying periods, macrophages were lysed with cell signaling lysis buffer (Millipore) for whole cell lysates. Cytoplasmic and nuclear extracts were prepared using the Epiquik Nuclear Extraction kit (Epigentek, Farmingdale, N.Y.). Total protein was separated on 4-20% Tris-glycine pre-cast gels (Pierce) and transferred onto Nitrocellulose membranes (Bio-Rad Life Science, Hercules, Calif.). The membranes were then probed with HRP conjugated secondary antibodies, and signals were detected using Pierce ECL Western Blotting Substrate (Pierce).

[2] = test system: mouse peritoneal macrophages; assay: qPCR of macrophage activation genes; format: cell-based
Experimental: Three milliliters of 4% Thioglycolate solution was injected intraperitoneally into 8-12 week old C57BL/6 mice. Three days later, macrophages were collected by lavaging the peritoneal cavity with PBS. The cells were then resuspended in DMEM containing 10% FBS. After 2 h, non-adherent cells were washed away with PBS and the macrophages were cultured overnight in serum free DMEM. The macrophages were then treated with DMEM containing IL4 (10 ng/ml, BioAbChem Inc. Ladson, S.C.) or LPS (100 ng/ml, Sigma-Aldrich) and IFNγ (20 ng/ml, BioAbChem Inc) with or without emodin. Emodin was purchased from Nanjing Langze Medicine and Technology Co. Ltd (Nanjing, China) and dissolved in DMSO at a concentration of 10 mg/ml as a stock solution.
(§1) For qPCR, macrophages were lysed with Qiazol and RNA was extracted using Zymo research Direct-zol RNA isolation kit. cDNA was then made from 1 microgram of RNA using iScript cDNA Synthesis Kit (Bio-Rad Life Science). Run conditions were 95° C. for 10 s, 58° C. for 15 s, 70° C. for 15 s. Samples were run in duplicate on a Bio-rad CFX Real Time thermocycler.

[3] = test system: mouse peritoneal macrophages; assay: Macrophage memory experiments (re-stimulation after washout); format: cell-based
Experimental: For macrophage memory experiments, macrophages were stimulated overnight with IL4, IFNγ, and/or emodin. Following, the cells were washed 3× with PBS and cultured for 2 or 5 days in DMEM with 2% FBS. The media were changed every 2 days. The cells were then re-stimulated with IL4 or LPS for 6 h.
as §1

[4] = test system: Peritoneal macrophages from C57Bl/6 mice; assay: Macrophages stimulated with EO771 tumor conditioned medium (qPCR, histone kit, ChIP); format: cell-based, mouse
Experimental: 4T1 cells were obtained from the American Type Culture Collection (ATCC), and EO771 cells were developed from an ER+ spontaneous mammary adenocarcinoma. The cells were maintained in culture according to standard practice. For tumor conditioned medium (TCM) collection, cells were grown until they were 80-90% confluent. Following, the medium was replaced with serum free (SF) DMEM and the cells were cultured for 48 h. The medium was then collected and passed through a 0.45 μm filter (Millipore Corp., Bedford, Mass.). The medium was concentrated 10 times using centrifuge filters with a 3,000 MW cutoff (Millipore). Before use the concentrated conditioned medium was diluted 1:2 with fresh SF DMEM.
Mice were injected with 3 mL of 4% thioglycollate solution. After 3 d, macrophages were collected by peritoneal lavage with PBS. The cells were resuspended in DMEM with 10% FBS and cultured for 2 h. The non-adherent cells were then washed away and the remaining cells were cultured overnight in SF DMEM. The cells were then treated with TCM with or without emodin.
as §1, with “cells” for “macrophages”, “Qiazol,” for “Qiazol”, “μg” for “microgram”, “Science, Hercules, Calif.).” for “Science).”
Macrophages were fixed in 1% formaldehyde. Excess formaldehyde was quenched with glycine, and the cells were collected in PBS by scraping. The cells were lysed (0.5% IGEPAL, 4 mM HEPES), and the nuclei were resuspended in nuclear lysis buffer (1% SDS, 10 mM EDTA, and 50 mM Tris, pH 8.1). The DNA was sheared by sonication using a Diagnode Bioruptor Pico (Diagenode, Denville, N.J.) for 25 cycles of 30 s on/30 s off. Then 8 μg chromatin was diluted 1:10 (0.01% SDS, 1.1% Triton X-100, 1.2 mM EDTA, 16.7 mM Tris-HCl, pH 8.1, 167 mM NaCl), and 2% of the input was removed from each sample and saved for analysis. Anti-H3K27m3 (Abcam) was added to each sample along with 20 μL of protein A+G magnetic beads (Millipore), and the samples were incubated overnight at 4° C. The beads were washed with low salt, high salt, LiCl, and TE wash buffers sequentially, and the DNA was eluted off the beads with Proteinase K at 62° C. for 2 h (elution buffer: 200 mM NaCl, 1% SDS and 50 mM Tris). The DNA was then analyzed by qPCR.
In order to detect genome wide levels of histone H3 modifications, histones were isolated from macrophages treated with TCM with or without emodin for 24 h using EpiQuik total histone extraction kits (Epigentek, Farmingdale, N.Y.) according to the manufacturer's instructions. Histones (100 ng) were then analyzed using an EpiQuik Histone H3 modification kits (EpiGentek) according to the manufacturer's instructions.

4T1 cells = assay: Proliferation, Ki67 staining; format: cell-based, mouse; conditions: 24 h
Experimental: (§2) For Ki67 staining, 4T1 and EO771 tumor cells were seeded into 6 well plates and cultured in SF DMEM overnight. They were then treated with various concentrations of emodin (0-50 μM) for 24 h. The cells were resuspended with trypsin plus EDTA and fixed with 1% paraformaldehyde. The cells were then permeabilized with 0.25% Triton X-100 and stained with anti-Ki67 […] (Abcam). The cells were washed and incubated with goat anti-rabbit Alexa 488 (Invitrogen, Eugene, Oreg.). After washing, the samples were analyzed by flow cytometry using a BD FACS flow cytometer and CXP software version 2.2. Data were collected for 10,000 live events per sample.

EO771 cells = assay: Proliferation, Ki67 staining; format: cell-based, mouse; conditions: 24 h
Experimental: as §2

In the case of Cc1cc(O)c2c(c1)C(=O)c1cc(O)cc(O)c1C2=O [emodin], the STAT6 nuclear translocation ([1]; IL4 stimulation) is reported as “drastically inhibit”, the “nuclear IRF4” value ([1]; IL4 stimulation) is reported as “inhibited” and the “NFκB p65 nuclear translocation” value ([1]; LPS/IFNγ stimulation) is reported as “drastically inhibit”. The “STAT1 and IRF5 nuclear translocation” value ([1]; LPS/IFNγ stimulation) was “inhibited”, the “expression of polarization markers iNOS, Arg1 and YM1 in naïve macrophages” value ([2]; emodin 25 or 50 μM, 24 h) was “no effects” and the “expression of M1 genes TNFα, CXCL2 and CXCL10, and M2 gene Mrc1” value ([2]; qPCR, LPS/IFNγ vs IL4 settings) was “inversely regulated”. The “expression of M2 genes Arg1 and Chi3I3” value ([2]; qPCR, under IL4 stimulation) was “inhibited”, the “expression of receptors TLR4 and CSFr1” value ([2]; qPCR, under LPS/IFNγ or IL4 stimulation, respectively) was “inhibited the expression” and the “expression of IL1β, iNOS, IL6, MMP2 and 9” value ([2]; qPCR, under LPS/IFNγ stimulation) was “inhibited the expression”. The “expression of IRF5, SOCS1 and CCL2” value ([2]; qPCR, under both IL4 and LPS stimulation) was “inhibited the expression”, the “macrophage response to IL4 after emodin pretreatment alone” value ([3]; 50 μM 24 h, 2-d washout, IL4 6 h) was “significantly reduced” and the “macrophage response to LPS after emodin pretreatment alone” value ([3]; 50 μM 24 h, 2-d washout, LPS 6 h) was “no effect”. The “nuclear STAT1 or STAT6 after 5 days of wash-out” value ([3]; IFNγ or IL4 pretreated cells with or without emodin) was “no significant difference”, the “macrophage response to LPS after IL4 pre-treatment (crossover)” value ([3]; co-pretreatment with emodin) was “did not have any effects” and the “response to secondary IL-4 stimulation after IFNγ pretreatment (crossover)” value ([3]; emodin co-pretreatment) was “decreased the response”. For the same molecule, the “response to second LPS or IL-4 treatment (iNOS, Arg1 expression)” value ([3]; first treated with emodin 50 μM with IFNγ or IL4 24 h, 2 d or 5 d washout) was “significantly diminished”, the “TCM-decreased H3K27m3 on the promoters of IRF4, Arg1, and C/EBPβ” value ([4]; ChIP assay) was “reversed the reduction” and the “TCM-increased expression of ICAM1” value ([4]; EO771 TCM, 24 h, qPCR) was “dose dependently blocked”. For the same molecule, the “TCM-induced expression of Arg1, C/EBPβ and IRF4” value ([4]; EO771 TCM, 24 h, qPCR) was “dose-dependently inhibited”, the “expression of CSFr1” value ([4]; EO771 TCM, 24 h, qPCR) was “decreased the expression” and the “expression of MMP2 and MMP9” value ([4]; EO771 TCM, 24 h, qPCR) was “inhibited expression”. For the same molecule, the “TCM-increased expression of JMJD3” value ([4]; EO771 TCM, emodin 25 μM or 50 μM, 24 h) was “significantly attenuated”, the “global levels of H3K27 methylation” value ([4]; EpiQuik histone modification kit) was “no effects” and the “concentrations with no significant effect on cell proliferation” value (4T1 cells) was “less than 50 μM”. The “concentrations with no significant effect on cell proliferation” value (EO771 cells) was “less than 50 μM”.
